Source: patent US20210382058A1, “PATIENT SELECTION FOR TREATMENT OF MYC POSITIVE CANCERS WITH INDENOISOQUINOLINES” (Purdue Research Foundation, priority 2020, published 2021)
Like-named read-outs stand apart in the source and are kept apart here.

Experiments:
[1] = test system: MYC protein expression in MCF-7 breast cancer cells; test: Western blotting of MYC protein level in MCF-7 cells; format: cell-based, human; details: Homo sapiens, MCF7; western blotting, MCF-7 cells, 0.5, 1, 2, and 4 μM, 24 hours; read-out: MYC Inhibition
How it was run: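 Immunoblotting with ECL detection quantified MYC, with GAPDH (1:2000) as reference and anti-MYC at 1:1000.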

NCI-60 cancer cell lines = test: NCI-60 cancer cell line drug screen (GI50, MGM); format: cell-based, human; details: Homo sapiens; for GI50: read-out: Antiproliferative Activities [GI50 (μM)]
Experimental: Cancer cells were incubated with the test compounds at five concentrations ranging from 100 μM to 10 nM for 48 h. […] The approximate average of GI50 values across the entire panel of NCI-60 cancer cell lines for each compound was recorded as the MGM value.

human topoisomerase I = target: T1, human topoisomerase I (Homo sapiens, UniProt P11387); details: relative topoisomerase I inhibition levels, previously determined, six levels (0 - 5, +++++ = 5); cited from earlier work
T1 sequence (P11387 1-765): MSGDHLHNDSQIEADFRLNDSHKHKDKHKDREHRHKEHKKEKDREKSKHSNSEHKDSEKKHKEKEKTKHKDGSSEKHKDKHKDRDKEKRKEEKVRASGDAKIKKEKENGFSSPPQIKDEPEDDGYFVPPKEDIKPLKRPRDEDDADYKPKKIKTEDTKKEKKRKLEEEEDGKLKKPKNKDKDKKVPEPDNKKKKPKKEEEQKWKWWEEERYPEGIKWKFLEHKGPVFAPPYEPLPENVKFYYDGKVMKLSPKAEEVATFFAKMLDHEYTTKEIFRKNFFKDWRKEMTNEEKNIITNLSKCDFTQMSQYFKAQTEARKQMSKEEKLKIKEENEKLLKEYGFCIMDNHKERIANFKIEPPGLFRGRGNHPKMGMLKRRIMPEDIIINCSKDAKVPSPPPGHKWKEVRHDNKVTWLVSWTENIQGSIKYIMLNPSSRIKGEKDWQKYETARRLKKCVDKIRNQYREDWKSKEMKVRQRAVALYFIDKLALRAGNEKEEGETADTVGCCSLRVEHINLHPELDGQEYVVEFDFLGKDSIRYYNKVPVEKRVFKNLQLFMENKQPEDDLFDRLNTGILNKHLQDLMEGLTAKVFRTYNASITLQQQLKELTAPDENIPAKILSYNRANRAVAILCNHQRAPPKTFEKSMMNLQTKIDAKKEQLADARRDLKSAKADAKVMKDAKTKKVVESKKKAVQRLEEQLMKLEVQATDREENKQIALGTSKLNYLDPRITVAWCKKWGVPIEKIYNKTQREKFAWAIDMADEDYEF

In the case of COc1ccc2c(c1)C(=O)c1c-2n(CCCN2CCOCC2)c(=O)c2ccccc12 [Compound 19], the minimal effective concentration [1] is reported as 2 µM, the GI50 (NCI-60 cancer cell lines; 786-0, Renal Cancer, 786-0) is reported as 1.78 µM and the GI50 (NCI-60 cancer cell lines; A498, Renal Cancer, A498) is reported as 1.64 µM. The GI50 (NCI-60 cancer cell lines; A549, Non-Small Cell Lung Cancer, A549/ATCC) was 1.96 µM, the GI50 (NCI-60 cancer cell lines; ACHN, Renal Cancer, ACHN) was 1.67 µM and the GI50 (NCI-60 cancer cell lines; BT-549, Breast Cancer, BT-549) was 4.11 µM. For the same molecule, the GI50 (NCI-60 cancer cell lines; CAKI-1, Renal Cancer, CAKI-1) was 3.17 µM, the GI50 (NCI-60 cancer cell lines; CCRF-CEM, Leukemia, CCRF-CEM) was 1.57 µM and the GI50 (NCI-60 cancer cell lines; COLO 205, Colon Cancer, COLO 205) was 1.74 µM. It also gave a GI50 (NCI-60 cancer cell lines; DU-145, Prostate Cancer, DU-145) of 2.31 µM, a GI50 (NCI-60 cancer cell lines; EKVX, Non-Small Cell Lung Cancer, EKVX) of 4.91 µM and a GI50 (NCI-60 cancer cell lines; HCC 2998, Colon Cancer, HCC-2998) of 3.44 µM. For the same molecule, the GI50 (NCI-60 cancer cell lines; HCT-15, Colon Cancer, HCT-15) was 2.9 µM, the GI50 (NCI-60 cancer cell lines; HCT-116, Colon Cancer, HCT-116) was 1.27 µM and the GI50 (NCI-60 cancer cell lines; HL-60, Leukemia, HL-60(TB)) was 4.28 µM. For the same molecule, the GI50 (NCI-60 cancer cell lines; HOP-62, Non-Small Cell Lung Cancer, HOP-62) was 1.41 µM, the GI50 (NCI-60 cancer cell lines; HOP-92, Non-Small Cell Lung Cancer, HOP-92) was 4.47 µM and the GI50 (NCI-60 cancer cell lines; HT-29, Colon Cancer, HT29) was 2.48 µM. For the same molecule, the GI50 (NCI-60 cancer cell lines; Hs-578T, Breast Cancer, HS 578T) was 8.95 µM, the GI50 (NCI-60 cancer cell lines; K562, Leukemia, K-562) was 5.13 µM and the GI50 (NCI-60 cancer cell lines; KM12, Colon Cancer, KM12) was 3.8 µM. It also gave a GI50 (NCI-60 cancer cell lines; LOX IMVI, Melanoma, LOX IMVI) of 1.34 µM, a GI50 (NCI-60 cancer cell lines; Leukemia, SR) of 0.29 µM and a GI50 (NCI-60 cancer cell lines; MCF7, Breast Cancer, MCF7) of 0.2 µM. For the same molecule, the GI50 (NCI-60 cancer cell lines; MDA-MB-231, Breast Cancer, MDA-MB-231/ATCC) was 11.2 µM, the GI50 (NCI-60 cancer cell lines; MDA-MB-435, Melanoma, MDA-MB-435) was 4.67 µM and the GI50 (NCI-60 cancer cell lines; MOLT-4, Leukemia, MOLT-4) was 0.87 µM. For the same molecule, the GI50 (NCI-60 cancer cell lines; Malme-3M, Melanoma, MALME-3M) was 4.49 µM, the GI50 (NCI-60 cancer cell lines; Melanoma, M14) was 2.85 µM and the GI50 (NCI-60 cancer cell lines; NCI-H23, Non-Small Cell Lung Cancer, NCI-H23) was 3.1 µM. For the same molecule, the GI50 (NCI-60 cancer cell lines; NCI-H226, Non-Small Cell Lung Cancer, NCI-H226) was 2.79 µM, the GI50 (NCI-60 cancer cell lines; NCI-H322M, Non-Small Cell Lung Cancer, NCI-H322M) was 5.44 µM and the GI50 (NCI-60 cancer cell lines; NCI-H460, Non-Small Cell Lung Cancer, NCI-H460) was 0.44 µM. The GI50 (NCI-60 cancer cell lines; NCI-H522, Non-Small Cell Lung Cancer, NCI-H522) was 1.06 µM, the GI50 (NCI-60 cancer cell lines; OVCAR-3, Ovarian Cancer, OVCAR-3) was 2.7 µM and the GI50 (NCI-60 cancer cell lines; OVCAR-4, Ovarian Cancer, OVCAR-4) was 3.13 µM. The GI50 (NCI-60 cancer cell lines; OVCAR-5, Ovarian Cancer, OVCAR-5) was 6.31 µM, the GI50 (NCI-60 cancer cell lines; OVCAR-8, Ovarian Cancer, OVCAR-8) was 3.11 µM and the GI50 (NCI-60 cancer cell lines; Ovarian Cancer, NCl/ADR-RES) was 3.14 µM. For the same molecule, the GI50 (NCI-60 cancer cell lines; Prostate Cancer, PC-3) was 19.5 µM, the GI50 (NCI-60 cancer cell lines; RPMI-8226, Leukemia, RPMI-8226) was 1.85 µM and the GI50 (NCI-60 cancer cell lines; RXF 393, Renal Cancer, RXF 393) was 7.16 µM. For the same molecule, the GI50 (NCI-60 cancer cell lines; Renal Cancer, U0-31) was 0.42 µM, the GI50 (NCI-60 cancer cell lines; SF-268, CNS Cancer, SF-268) was 1.75 µM and the GI50 (NCI-60 cancer cell lines; SF-295, CNS Cancer, SF-295) was 1.27 µM. The GI50 (NCI-60 cancer cell lines; SF-539, CNS Cancer, SF-539) was 1.96 µM, the GI50 (NCI-60 cancer cell lines; SK-MEL-2, Melanoma, SK-MEL-2) was 19.5 µM and the GI50 (NCI-60 cancer cell lines; SK-MEL-5, Melanoma, SK-MEL-5) was 1.5 µM. It also gave a GI50 (NCI-60 cancer cell lines; SK-MEL-28, Melanoma, SK-MEL-28) of 8.03 µM, a GI50 (NCI-60 cancer cell lines; SK-OV-3, Ovarian Cancer, SK-OV-3) of 2.67 µM and a GI50 (NCI-60 cancer cell lines; SN12C, Renal Cancer, SN12C) of 4.1 µM. It also gave a GI50 (NCI-60 cancer cell lines; SNB-19, CNS Cancer, SNB-19) of 2.13 µM, a GI50 (NCI-60 cancer cell lines; SNB-75, CNS Cancer, SNB-75) of 3.63 µM and a GI50 (NCI-60 cancer cell lines; SW-620, Colon Cancer, SW-620) of 1.68 µM. The GI50 (NCI-60 cancer cell lines; T47D, Breast Cancer, T-47D) was 1.07 µM, the GI50 (NCI-60 cancer cell lines; TK-10, Renal Cancer, TK-10) was 4.63 µM and the GI50 (NCI-60 cancer cell lines; U-251, CNS Cancer, U251) was 1.72 µM. It also gave a GI50 (NCI-60 cancer cell lines; UACC-62, Melanoma, UACC-62) of 1.58 µM, a GI50 (NCI-60 cancer cell lines; UACC-257, Melanoma, UACC-257) of 6.6 µM and a mean GI50 across NCI-60 panel (MGM) (NCI-60 cancer cell lines; average of GI50 values across the entire panel of NCI-60 cancer cell lines) of 2.57 µM. The “Top1 Inhibiton” value (human topoisomerase I) was “+++ (strong inhibition, +++, MYC expression inhibited at 0.5 to 1.0 μM)”.
